What was measured:
[1] = daily release or elution of Bimatoprost in vitro versus time (FIG. 8); assay type: physicochemical; conditions: four-hundred-day study
[2] = Bimatoprost sampled in the aqueous humor of dogs over time (FIG. 9); assay type: in vivo
Source text: In this example, there was a low dose group of dogs (Grp 1), a mid-dose group of dogs (Grp 2), a high dose group of dogs (Grp 3), and a placebo group of dogs (Grp 4).

average release rate ([1]; drug delivery component): less than 0.100 micrograms per day
level of Bimatoprost in the aqueous humor, elution kinetics ([2]; low dose (Grp 1), mid-dose (Grp 2) and high dose (Grp 3) groups, study period of about one hundred thirteen days): zero-order elution rate
mean measurements of Bimatoprost in the aqueous humor, dose dependence ([2]; low, mid and high dose groups): increased with the higher doses
SMILES: CCNC(=O)CCC/C=C\C[C@@H]1[C@@H](/C=C/[C@@H](O)CCc2ccccc2)[C@H](O)C[C@@H]1O [Bimatoprost]
release kinetics over the study [1]: essentially a zero-order and/or a steady state elution rate

Reference: patent publication US12193972B2, “Intraocular drug delivery systems and methods of use” (SpyGlass Pharma, Inc., priority 2022, dated 2025)
